This is an account of results in US11325982B2, “Biparatopic and multiparatopic antibodies with common light chain and method of use” (XUANZHU BIOPHARMACEUTICAL CO., LTD., priority 2017, dated 2022).

The test concerns NCI-N87 cells. Nature of the test: Inhibition of proliferation of NCI-N87 cells (CCK-8). It is filed as cell-based. The settings on record: 72 hours, FIG. 14.

Experimental: The growth curve of NCI-N87 was initially determined by plating cells at various densities in 96-well tissue culture plates. Cells were gown in RPMI-1640 medium supplemented with 10% fetal bovine serum (FBS).
24 hours later, 10 μl of antibody construct diluted to various concentrations with the medium were added to the cell culture. After the cells were cultured for additional 72 hours, the cell proliferation rates were determined by adding 10 μl of CCK-8 reagent (Sigma). After 3 hour of incubation without light, the plates were read at OD450 nm. The wells without addition of antibody were set as 100% cell viability and Docetaxel was used as a positive control for cytotoxicity. The data were then fitted into 4-parameter sigmoidal curve to generate IC50. The samples were done in triplicate.

Turning to pertuzumab [T1, reference compound], the growth inhibition entry was “minimal effect” and the “growth inhibition effect compared with other antibodies” value is on record as “somewhat greater effect”.
“T54: Biparatopic knob/hole heterodimer: HC14 (pert T30A) and HC15 (Tra N54T/D98S) with Tra_LC_N30S_S56Y”: the growth inhibition result is on record as “inhibited growth” and the “growth inhibition effect compared with other antibodies” value is recorded as “had greater effect than pertuzumab (mAb T1) or trastuzumab (mAb T22)”.
On the same counts, the results for “T51: Biparatopic Fab-Ig: Bip_mAb_HC11 (VH_Pert_T30A; VH_Tra_N54T/D98S) with Tra_LC_N30S_S56Y; Fc M428L” are “inhibited growth” and “had greater effect than pertuzumab (mAb T1) or trastuzumab (mAb T22)”.
Regarding “T52: Biparatopic Fab-Ig: Bip_mAb_HC12 (VH_Pert_T30A/G56A; VH_Tra_N54T/D98S) with Tra_LC_N30S_S56Y”, the growth inhibition result is given as “inhibited growth” and the “growth inhibition effect compared with other antibodies” value is “had greater effect than pertuzumab (mAb T1) or trastuzumab (mAb T22)”.
